This is an account of results in paper PMC9064041 (Journal of medicinal chemistry, 2020).

The structures appear in SMILES notation. ≈ marks a conversion by molar mass, not a printed value.

In this test the test system is C. difficile ATCC BAA 1801. In words: MIC, broth microdilution, initial screening. Type of test: cell-based, Clostridioides difficile. The settings on record: for MIC: C. difficile ATCC BAA 1801, anaerobic, 48 hours.
[1] abbreviates: Clostridioides difficile, BAA1801, 48 h.

For `Cc1ccc(-c2nnc(NC(=O)c3ccc(SC(F)(F)F)cc3)o2)cc1` [Compound 12, N-(5-(4-Methylphenyl)-1,3,4-oxadiazol-2-yl)-4-((trifluoromethyl)thio)benzamide], the “activity against C. difficile ATCC BAA 1801 in words” value (from here on “activity”) is on record as “only moderate to no actvity”.

Under setting [1], `O=C(Nc1nnc(-c2ccccc2)o1)c1ccc(SC(F)(F)F)cc1` [compound 1, N-(5-Phenyl-1,3,4-oxadiazol-2-yl)-4-((trifluoromethyl)thio)benzamide] gave an MIC of 2 µg/mL (≈ 5.47 µM).

In the case of `O=C(Nc1nnc(-c2ccccc2F)o1)c1ccc(SC(F)(F)F)cc1` [compound 2, N-(5-(2-Fluorophenyl)-1,3,4-oxadiazol-2-yl)-4-((trifluoromethyl)thio)benzamide], the MIC under setting [1] was determined as 4 µg/mL (≈ 10.4 µM).

As for `O=C(Nc1nnc(-c2ccccc2Cl)o1)c1ccc(SC(F)(F)F)cc1` [compound 3, N-(5-(2-Chlorophenyl)-1,3,4-oxadiazol-2-yl)-4-((trifluoromethyl)thio)benzamide], under setting [1], it took 4 µg/mL (≈ 10 µM) to inhibit growth (MIC).

`O=C(Nc1nnc(-c2cccc(F)c2)o1)c1ccc(SC(F)(F)F)cc1` [compound 4, N-(5-(3-Fluorophenyl)-1,3,4-oxadiazol-2-yl)-4-((trifluoromethyl)thio)benzamide]: the MIC under setting [1] came to 0.03 µg/mL (≈ 0.0783 µM).

The compound `O=C(Nc1nnc(-c2cccc(Cl)c2)o1)c1ccc(SC(F)(F)F)cc1` [compound 5, N-(5-(3-Chlorophenyl)-1,3,4-oxadiazol-2-yl)-4-((trifluoromethyl)thio)benzamide] returned an MIC under setting [1] of 0.03 µg/mL (≈ 0.075 µM).

As for `COc1cccc(-c2nnc(NC(=O)c3ccc(SC(F)(F)F)cc3)o2)c1` [compound 6, N-(5-(3-Methoxyphenyl)-1,3,4-oxadiazol-2-yl)-4-((trifluoromethyl)thio)benzamide], the “activity” value is reported as “only moderate to no actvity”. Under setting [1], this compound returned an MIC of 4 µg/mL (≈ 10.1 µM).

Compound `O=C(Nc1nnc(-c2cccc(C(F)(F)F)c2)o1)c1ccc(SC(F)(F)F)cc1` [compound 7, N-(5-(3-Trifluoromethylphenyl)-1,3,4-oxadiazol-2-yl)-4-((trifluoromethyl)thio)benzamide] displayed an MIC under setting [1] of 0.015 µg/mL (≈ 0.0346 µM).

Turning to `O=C(Nc1nnc(-c2ccc(F)cc2)o1)c1ccc(SC(F)(F)F)cc1` [compound 8, N-(5-(4-Fluorophenyl)-1,3,4-oxadiazol-2-yl)-4-((trifluoromethyl)thio)benzamide], the MIC under setting [1] was found to be 4 µg/mL (≈ 10.4 µM).

Compound `O=C(Nc1nnc(-c2ccc(Cl)cc2)o1)c1ccc(SC(F)(F)F)cc1` [compound 9, N-(5-(4-Chlorophenyl)-1,3,4-oxadiazol-2-yl)-4-((trifluoromethyl)thio)benzamide] returned an MIC under setting [1] of 2 µg/mL (≈ 5 µM).

The compound `O=C(Nc1nnc(-c2ccc(C(F)(F)F)cc2)o1)c1ccc(SC(F)(F)F)cc1` [compound 10, N-(5-(4-Trifluoromethylphenyl)-1,3,4-oxadiazol-2-yl)-4-((trifluoromethyl)thio)benzamide] showed an MIC under setting [1] of 0.125 µg/mL (≈ 0.288 µM).

With `COc1ccc(-c2nnc(NC(=O)c3ccc(SC(F)(F)F)cc3)o2)cc1` [compound 11, N-(5-(4-Methoxyphenyl)-1,3,4-oxadiazol-2-yl)-4-((trifluoromethyl)thio)benzamide], the “activity” value is listed as “only moderate to no actvity”. Further, the MIC under setting [1] is 4 µg/mL (≈ 10.1 µM).

For the compound `CC(C)c1ccc(-c2nnc(NC(=O)c3ccc(SC(F)(F)F)cc3)o2)cc1` [compound 13, N-(5-(4-Isopropylphenyl)-1,3,4-oxadiazol-2-yl)-4-((trifluoromethyl)thio)benzamide], the “activity” value is “only moderate to no actvity”. Also, the MIC under setting [1] was 128 µg/mL (≈ 314 µM).

Take `O=C(Nc1nnc(-c2ccc(Cl)cc2Cl)o1)c1ccc(SC(F)(F)F)cc1` [compound 14, N-(5-(2,4-Dichlorophenyl)-1,3,4-oxadiazol-2-yl)-4-((trifluoromethyl)thio)benzamide]: the MIC worked out at 0.03 µg/mL (≈ 0.0691 µM). Under setting [1], this compound displayed a minimal inhibitory concentration (MIC) of 0.06 µg/mL (≈ 0.138 µM).

Under setting [1], `COc1ccc(Cl)cc1-c1nnc(NC(=O)c2ccc(SC(F)(F)F)cc2)o1` [compound 16, N-(5-(5-Chloro-2-methoxyphenyl)-1,3,4-oxadiazol-2-yl)-4-((trifluoromethyl)thio)benzamide] showed an MIC of 2 µg/mL (≈ 4.65 µM).
